Source: ChEMBL document CHEMBL3886227, “Multiheteroaryl compounds as inhibitors of H-PGDS and their use for treating prostaglandin D2 mediated diseases” (2015)

Target: Hematopoietic prostaglandin D synthase (Homo sapiens, UniProt O60760)
Assay: Fluorescence Polarization Binding Assay (FPBA): This assay essentially is available from Cayman Chemical Company as Catalog item #600007. The test data reported for the aforementioned Examples (H-PGDS FPBA IC50) were generated using a 96-well, instead of the 384-well, format.Detection analyte and H-PGDS-MBP fusion enzyme were incubated in the presence of reduced glutathione (5 mM) for 60-90 minutes at room temperature and FP was measured using a TECAN SAFIRE 2 plate reader equipped with absorbance, fluorescence, fluorescence polarization and FRET capabilities. Assays were performed in 96-well microtiter plates in 100 µL of total sample volume. Excitation and emission wavelengths appropriate for the employed detection analyte were used.

Chain of Hematopoietic prostaglandin D synthase (O60760 whole entry, the tested form may be a part): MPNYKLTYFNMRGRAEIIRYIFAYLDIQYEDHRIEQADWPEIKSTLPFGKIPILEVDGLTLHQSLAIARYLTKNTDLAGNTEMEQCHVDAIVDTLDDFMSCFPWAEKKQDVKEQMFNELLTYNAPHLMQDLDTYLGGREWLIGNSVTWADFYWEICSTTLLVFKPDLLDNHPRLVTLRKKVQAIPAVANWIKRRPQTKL

- IC50: 2000 nM
Compound: COC(=O)c1cc(-c2cnc(Oc3ccccc3)nc2)[nH]n1
